Measured values as given in patent US9963434B2, “N-arylmethyl sulfonamide negative modulators of NR2A” (LUC THERAPEUTICS, priority 2013, dated 2018).
Like-named read-outs stand apart in the source and are kept apart here.

Biological target: NR1/NR2A (Homo sapiens (Human), UniProt Q05586+Q12879)
Assay: FDSS Ca2+ influx inhibition assay in HEK293 cells expressing NR1/NR2A
Type: cell-based
Settings: 3 μM glutamate, 3 μM glycine, 1 mM Ca2+
Outline: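 Fluo-8-loaded HEK293 NR1/NR2A cells preincubated 10 min with compound at 10 μM final (0.1% DMSO) in Ca2+/Mg2+-free HBSS with 20 mM HEPES. Stimulated with 3 μM glutamate, 3 μM glycine, 1 mM Ca2+; FDSS recording for 3 min, end/baseline fluorescence ratio compared with MK801.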

[1] = inhibition relative to MK801, read-out: NR2A IC50

NR1/NR2A, sequence (Q12879 23-1464, other chains not shown): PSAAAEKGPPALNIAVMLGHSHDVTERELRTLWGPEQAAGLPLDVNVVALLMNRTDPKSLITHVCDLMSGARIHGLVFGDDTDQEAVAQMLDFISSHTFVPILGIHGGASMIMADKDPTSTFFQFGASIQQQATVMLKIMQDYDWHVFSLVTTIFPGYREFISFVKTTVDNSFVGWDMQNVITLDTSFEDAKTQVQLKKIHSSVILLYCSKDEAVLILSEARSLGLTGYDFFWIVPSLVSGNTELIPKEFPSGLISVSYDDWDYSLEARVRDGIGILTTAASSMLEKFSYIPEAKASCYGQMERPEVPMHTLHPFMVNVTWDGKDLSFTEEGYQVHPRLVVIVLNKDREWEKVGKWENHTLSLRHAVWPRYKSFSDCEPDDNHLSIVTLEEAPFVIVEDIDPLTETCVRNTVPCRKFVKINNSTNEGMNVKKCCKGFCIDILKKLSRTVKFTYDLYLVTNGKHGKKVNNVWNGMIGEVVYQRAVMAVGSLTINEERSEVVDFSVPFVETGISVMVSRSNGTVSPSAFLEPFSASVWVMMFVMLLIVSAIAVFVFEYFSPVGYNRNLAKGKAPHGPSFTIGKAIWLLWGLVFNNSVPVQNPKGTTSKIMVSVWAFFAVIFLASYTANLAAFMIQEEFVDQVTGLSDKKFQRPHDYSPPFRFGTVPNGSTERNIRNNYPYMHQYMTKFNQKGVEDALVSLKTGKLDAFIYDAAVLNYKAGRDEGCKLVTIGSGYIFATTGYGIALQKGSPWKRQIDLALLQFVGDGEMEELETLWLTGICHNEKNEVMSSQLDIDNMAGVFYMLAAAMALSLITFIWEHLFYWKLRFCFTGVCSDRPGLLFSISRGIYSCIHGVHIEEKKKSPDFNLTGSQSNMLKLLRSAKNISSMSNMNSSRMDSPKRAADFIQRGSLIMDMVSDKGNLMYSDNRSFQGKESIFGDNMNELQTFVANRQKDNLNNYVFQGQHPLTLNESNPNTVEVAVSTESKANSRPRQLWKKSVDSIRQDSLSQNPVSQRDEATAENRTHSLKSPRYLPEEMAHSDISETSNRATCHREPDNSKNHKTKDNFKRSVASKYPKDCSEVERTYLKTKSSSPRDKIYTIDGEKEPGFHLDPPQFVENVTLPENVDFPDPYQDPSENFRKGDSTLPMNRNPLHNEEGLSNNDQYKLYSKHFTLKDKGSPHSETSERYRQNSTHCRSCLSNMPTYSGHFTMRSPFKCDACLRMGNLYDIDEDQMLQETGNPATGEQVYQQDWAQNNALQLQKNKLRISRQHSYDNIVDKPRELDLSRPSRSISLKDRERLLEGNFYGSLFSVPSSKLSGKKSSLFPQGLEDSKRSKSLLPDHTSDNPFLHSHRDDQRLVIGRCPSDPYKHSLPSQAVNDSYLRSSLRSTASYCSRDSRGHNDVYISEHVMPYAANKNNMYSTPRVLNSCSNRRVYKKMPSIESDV

Row | IC50 [1] [µM] | IC50 (read-out: Binned Activity) [µM] | Compound
1 | 10 | > 10 | Cc1ncc(CNC(=O)c2cnc(CNS(=O)(=O)c3ccccc3F)c(C)n2)s1 [5-(2-fluorobenzenesulfon-amidomethyl)-6-methyl-N-[(2-methyl-1,3-thiazol-5-yl)methyl]pyrazine-2-carboxamide]
2 | 10 | > 10 | O=C(NCc1cocn1)c1ccc(CNS(=O)(=O)c2ccc(F)c(Cl)c2)nn1 [6-(3-chloro-4-fluorobenzenesulfon-amidomethyl)-N-(1,3-oxazol-4-ylmethyl)pyridazine-3-carboxamide]
3 |  | 1 to 10 | Cc1cnc(CNC(=O)c2cnc(CNS(=O)(=O)c3ccc(F)c(Cl)c3)cn2)cn1 [5-(3-chloro-4-fluorobenzenesulfon-amidomethyl)-N-[(5-methylpyrazin-2-yl)methyl]pyrazine-2-carboxamide]
4 | 10 | > 10 | O=C(NCc1ncccn1)c1ccc(CNS(=O)(=O)c2ccc(F)c(Cl)c2)nc1 [6-(3-chloro-4-fluorobenzenesulfon-amidomethyl)-N-(pyrimidin-2-ylmethyl)pyridine-3-carboxamide]
5 |  | 0.1 to 1 | Cc1nnc(CNC(=O)c2cnc(CNS(=O)(=O)c3ccc(F)c(Cl)c3)cn2)s1 [5-(3-chloro-4-fluorobenzenesulfon-amidomethyl)-N-[(5-methyl-1,3,4-thiadiazol-2-yl)methyl]pyrazine-2-carboxamide]
6 | 10 | > 10 | O=C(NCc1cncs1)c1ccc(CNS(=O)(=O)c2ccc(F)c(Cl)c2)nc1 [6-(3-chloro-4-fluorobenzenesulfon-amidomethyl)-N-(1,3-thiazol-5-ylmethyl)pyridine-3-carboxamide]
7 | 10 | > 10 | COc1ccc(CCNC(=O)c2ccc(CNS(=O)(=O)c3ccc(F)c(Cl)c3)cn2)cc1 [5-(3-chloro-4-fluorobenzenesulfon-amidomethyl)-N-[2-(4-methoxyphenyl)ethyl] pyridine-2-carboxamide]
8 |  | 1 to 10 | COc1cccc(CNC(=O)c2ccc(CNS(=O)(=O)c3ccc(F)c(Cl)c3)cn2)c1 [5-(3-chloro-4-fluorobenzenesulfon-midomethyl)-N-[(3-methoxyphenyl)methyl] pyridine-2-carboxamide]
9 | 10 | > 10 | Cc1ncc(CNC(=O)c2ccc(CNC(=O)c3cccc(Cl)c3C)cn2)s1 [5-{[(3-chloro-2-methylphenyl)formamido]methyl}-N-[(2-methyl-1,3-thiazol-5-yl)methyl]pyridine-2-carboxamide]
10 | 10 | > 10 | O=C(NC1CCS(=O)(=O)C1)c1ccc(CNS(=O)(=O)c2ccc(F)c(Cl)c2)cn1 (stereo not shown) [5-(3-chloro-4-fluorobenzenesulfon-amidomethyl)-N-(1,1-dioxo-1λ^6-thiolan-3-yl)pyridine-2-carboxamide]
11 | 10 | > 10 | C[C@@H](NC(=O)c1ccc(CNS(=O)(=O)c2ccc(F)c(Cl)c2)nn1)c1cncs1 [6-(3-chloro-4-fluorobenzenesulfon-amidomethyl)-N-[(1R)-1-(1,3-thiazol-5-yl)ethyl]pyridazine-3-carboxamide]
12 | 10 | > 10 | Cc1cnc(CNC(=O)c2ccc(CNS(=O)(=O)c3ccc(F)c(Cl)c3)nn2)cn1 [6-(3-chloro-4-fluorobenzenesulfon-amidomethyl)-N-[(5-methylpyrazin-2-yl)methyl]pyridazine-3-carboxamide]
13 | 10 | > 10 | Cn1cnc(CNC(=O)c2ccc(CNS(=O)(=O)c3ccc(F)c(Cl)c3)nn2)c1 [6-(3-chloro-4-fluorobenzenesulfon-amidomethyl)-N-[(1-methyl-1H-imidazol-4-yl)methyl]pyridazine-3-carboxamide]
14 |  | 1 to 10 | O=C(NCc1ccno1)c1ccc(CNS(=O)(=O)c2ccc(F)c(Cl)c2)cn1 [5-(3-chloro-4-fluorobenzenesulfon-amidomethyl)-N-(1,2-oxazol-5-ylmethyl)pyridine-2-carboxamide]
15 | 10 | > 10 | Cc1ncc(CNC(=O)c2ccc(CNS(=O)(=O)c3cc4ccccc4s3)cn2)s1 [5-(1-benzothiophene-2-sulfonamidomethyl)-N-[(2-methyl-1,3-thiazol-5-yl)methyl]pyridine-2-carboxamide]
16 | 10 | > 10 | O=C(NCc1ncc(C(F)(F)F)cc1Cl)c1cnc(CNS(=O)(=O)c2ccc(F)c(Cl)c2)cn1 [5-(3-chloro-4-fluorobenzenesulfon-amidomethyl)-N-{[3-chloro-5-(trifluoromethyl)pyridin-2-yl]methyl}pyrazine-2-carboxamide]
17 | 10 | > 10 | O=C(NCc1cccs1)c1ccc(CNS(=O)(=O)c2ccc(F)c(Cl)c2)cn1 [5-(3-chloro-4-fluorobenzenesulfon-amidomethyl)-N-(thiophen-2-ylmethyl)pyridine-2-carboxamide]
18 |  | 0.1 to 1 | O=C(NCc1cccnc1)c1ccc(CNS(=O)(=O)c2ccc(F)c(Cl)c2)cn1 [5-(3-chloro-4-fluorobenzenesulfon-amidomethyl)-N-(pyridin-3-ylmethyl)pyridine-2-carboxamide]

Row | IC50 [1] [µM] | IC50 (read-out: Binned Activity) [µM] | Compound
19 | 10 | > 10 | Cc1ncc(CNC(=O)c2ccc(CNS(=O)(=O)c3ccc(Cl)c4nonc34)cn2)s1 [5-(7-chloro-2,1,3-benzoxadiazole-4-sulfonamidomethyl)-N-[(2-methyl-1,3-thiazol-5-yl)methyl]pyridine-2-carboxamide]
20 | 10 | > 10 | O=C(NCc1ccco1)c1ccc(CNS(=O)(=O)c2ccc(F)c(Cl)c2)cn1 [5-(3-chloro-4-fluorobenzenesulfon-amidomethyl)-N-(furan-2-ylmethyl)pyridine-2-carboxamide]
21 | 10 | > 10 | Cc1ncc(CNC(=O)c2ccc(CNS(=O)(=O)c3cc(Cl)cc(Cl)c3)cn2)s1 [5-(3,5-dichlorobenzenesulfon-amidomethyl)-N-[(2-methyl-1,3-thiazol-5-yl)methyl]pyridine-2-carboxamide]
22 | 10 | > 10 | Cc1cc(CNC(=O)c2ccc(CNS(=O)(=O)c3ccc(F)c(Cl)c3)nc2)n(C)n1 [6-(3-chloro-4-fluorobenzenesulfon-amidomethyl)-N-[(1,3-dimethyl-1H-pyrazol-5-yl)methyl]pyridine-3-carboxamide]
23 | 10 | > 10 | O=C(NCc1cccs1)c1ccc(CNS(=O)(=O)c2ccc(F)c(Cl)c2)nn1 [6-(3-chloro-4-fluorobenzenesulfon-amidomethyl)-N-(thiophen-2-ylmethyl)pyridazine-3-carboxamide]
24 | 10 | > 10 | Cc1nc(CNC(=O)c2ccc(CNS(=O)(=O)c3ccc(F)c(Cl)c3)nc2)cs1 [6-(3-chloro-4-fluorobenzenesulfon-amidomethyl)-N-[(2-methyl-1,3-thiazol-4-yl)methyl]pyridine-3-carboxamide]
25 |  | 0.1 to 1 | Cc1ncc(CNC(=O)c2cnc(CNS(=O)(=O)c3cc(F)cc(F)c3)c(C)n2)s1 [5-(3,5-difluorobenzenesulfon-amidomethyl)-6-methyl-N-[(2-methyl-1,3-thiazol-5-yl)methyl]pyrazine-2-carboxamide]
26 | 10 | > 10 | Cc1ncc(CNC(=O)c2cnc(CNS(=O)(=O)c3cc(Cl)cc(Cl)c3)c(C)n2)s1 [5-(3,5-dichlorobenzenesulfon-amidomethyl)-6-methyl-N-[(2-methyl-1,3-thiazol-5-yl)methyl]pyrazine-2-carboxamide]
27 |  | 1 to 10 | Cc1ncc(CNC(=O)c2ccc(CNS(=O)(=O)c3ccc(Cl)c(F)c3)cn2)s1 [5-(4-chloro-3-fluorobenzenesulfon-amidomethyl)-N-[(2-methyl-1,3-thiazol-5-yl)methyl]pyridine-2-carboxamide]
28 | 10 | > 10 | Cn1ccnc1CNC(=O)c1cnc(CNS(=O)(=O)c2ccc(F)c(Cl)c2)cn1 [5-(3-chloro-4-fluorobenzenesulfon-amidomethyl)-N-[(1-methyl-1H-imidazol-2-yl)methyl]pyrazine-2-carboxamide]
29 |  | 1 to 10 | O=C(NCc1cncnc1)c1ccc(CNS(=O)(=O)c2ccc(F)c(Cl)c2)cn1 [5-(3-chloro-4-fluorobenzenesulfon-amidomethyl)-N-(pyrimidin-5-ylmethyl)pyridine-2-carboxamide]
30 | 10 | > 10 | Cc1ncc(CNC(=O)c2cnc(CNC(=O)c3ccc(Cl)c(Cl)c3)cn2)s1 [5-{[(3,4-dichlorophenyl)form-amido]methyl}-N-[(2-methyl-1,3-thiazol-5-yl)methyl]pyrazine-2-carboxamide]
31 | 10 | > 10 | O=C(NCc1ncccc1C(F)(F)F)c1cnc(CNS(=O)(=O)c2ccc(F)c(Cl)c2)cn1 [5-(3-chloro-4-fluorobenzenesulfon-amidomethyl)-N-{[3-(trifluoromethyl)pyridin-2-yl]methyl}pyrazine-2-carboxamide]
32 | 10 | > 10 | Cc1ncc(CNC(=O)c2cnc(CNC(=O)c3cccc(Cl)c3)cn2)s1 [5-{[(3-chlorophenyl)formamido]methyl}-N-[(2-methyl-1,3-thiazol-5-yl)methyl]pyrazine-2-carboxamide]
33 | 10 | > 10 | COc1ccc(CNC(=O)c2cnc(CNS(=O)(=O)c3ccc(F)c(Cl)c3)cn2)cc1 [5-(3-chloro-4-fluorobenzenesulfon-amidomethyl)-N-[(4-methoxyphenyl)methyl] pyrazine-2-carboxamide]
34 | 10 | > 10 | Cc1ncc(CNC(=O)c2cnc(CNC(=O)c3cccc(C#N)c3)c(C)n2)s1 [5-{[(3-cyanophenyl)formamido]methyl}-6-methyl-N-[(2-methyl-1,3-thiazol-5-yl)methyl]pyrazine-2-carboxamide]
35 |  | 1 to 10 | O=C(NCc1ccncc1)c1cnc(CNS(=O)(=O)c2ccc(F)c(Cl)c2)cn1 [5-(3-chloro-4-fluorobenzenesulfon-amidomethyl)-N-(pyridin-4-ylmethyl)pyrazine-2-carboxamide]
